Assay results as given in patent publication US20100152298A1, “Present invention relates to a treatment for the management of cancer more specially the use of Flutamide anti-androgen drugsa” (UNIVERSITY OF KUWAIT, priority 2008, published 2010).

System: androgen-independent prostate cancer PC-3 cells
Assay: Growth, proliferation and viability of PC-3 cells treated with flutamide
Type: cell-based
Details: range of doses of flutamide

## CC(C)C(=O)Nc1ccc([N+](=O)[O-])c(C(F)(F)F)c1 [flutamide, Flutamide]
  inhibiting growth: 20-70%
